The test system of the data set is HaCaT cells. In words: Relief of 5-FU proliferative toxicity to HaCaT cells (CCK-8 cell survival). To be noted: for activation at 1 µM: compound 1 μM; for activation at 5 µM: compound 5 μM; for activation at 10 µM: compound 10 μM; for activation at 50 µM: compound 50 μM; for activation at 100 µM: compound 100 μM; for activation at 200 µM: compound 200 μM; for activation at 500 µM: compound 500 μM; for activation at 1000 µM: compound 1000 μM; for Cell Survival Rate (increased percentage of cell survival compared with the Group of 5-FU): 5-Fu 20 μM, HaCaT cells. The class given is cell-based. On the procedure: The cultured skin cell HaCaTs were digested, counted, and inoculated into a 96-well plate with 5000-10000 cells in each well. After 24 h of culture, the wells were divided into Group of blank solvent control, Group of 5-FU, Group of 5-FU+thymidine derivative, Group of 5-FU+the combination of thymidine derivative and uridine derivative. […] adding a solution of 5-FU and a solution of thymidine derivative (the final concentrations of 5-FU and thymidine derivative are shown in Table 3, the solution of thymidine is an aqueous solution, while the solutions of thymidine derivatives are all DMSO solutions); Group of 5-FU+the combination of thymidine derivative and uridine derivative: adding a solution of 5-FU and a mixed solution of thymidine derivative and uridine derivative (the final concentrations of the solution of 5-FU and the mixed solution of thymidine derivative+uridine derivative are shown in Table 3, the solution of thymidine is an aqueous solution, while the mixed solutions of thymidine derivative+uridine derivative are all DMSO solutions); Group of blank solvent control: adding the same type of solution as those of the corresponding Group of 5-FU or Group of 5-FU+thymidine derivative (or the mixed solution of thymidine derivative+uridine derivative) in equal volume. Group of blank solvent control was used as control to exclude the influence of the solvents in Group of 5-FU and Group of 5-FU+thymidine derivative (or the mixed solution of thymidine derivative+uridine derivative) on the results. After additional 48 hours of culture, a Cell Counting Kit-8 (CCK-8) detection kit (C0037, purchased from Shanghai Beyotime Biotechnology) is used to determine the cell survival rate, thereby calculating the proliferative toxicity of 5-Fu/5-DFUR on cells and the relieving effect of the thymidine derivative (or the mixed solution of thymidine derivative+uridine derivative) on the proliferative toxicity. Using GraphPad Prism 6.0 software, the results were statistically analyzed by t-test and plotted.
Table 3 lists the combinations of 5-FU and thymidine derivative (or the mixed solution of thymidine derivative+uridine derivative), and the corresponding experimental results (wherein the data in the column of cell survival indicate the corresponding increased percentage of the cell survivals of Group of 5-FU+thymidine derivative or Group of 5-FU+the combination of thymidine derivative and uridine derivative compared with the Group of 5-FU). FIGS. 3-10 list the experimental results of several representative compounds.
The effect of thymidine derivative or a combination of thymidine derivative and uridine derivative on relieving the proliferative toxicity of a chemotherapeutical drug (5-FU) to HaCaT cells was tested according to the method in Examples 2-29. The test thymidine derivative or the combination of thymidine derivative and uridine derivative, as well as the final concentration of the test compounds were shown in Table 7.
Table 7 lists the combinations of 5-FU and thymidine derivative (or the mixed solution of thymidine derivative+uridine derivative), and the corresponding experimental results (wherein the data in the column of cell survival indicate the corresponding increased percentage of the cell survivals of Group of 5-FU+thymidine derivative or Group of 5-FU+the combination of thymidine derivative and uridine derivative compared with the Group of 5-FU). FIGS. 15-21 list the experimental results of several exemplary compounds.

[1] abbreviates: Homo sapiens, HaCaT, increase vs Group of 5-FU, 5-FU 20 μM, 48 h, read-out: Cell Survival Rate.
Where [2] appears, read: selected compound final concentration 0.8 μM.
The mark [3] stands for this setting: selected compound final concentration 1.6 μM.
Setting [4] is: selected compound final concentration 3.13 μM.
Setting [5] is: selected compound final concentration 6.25 μM.
The mark [6] stands for this setting: selected compound final concentration 12.5 μM.
The mark [7] stands for this setting: selected compound final concentration 25 μM.
The mark [8] stands for this setting: selected compound final concentration 50 μM.

Molecules are shown by their SMILES.

Turning to `Cc1cn([C@H]2C[C@H](OC(=O)C3CCCC3)[C@@H](COC(=O)C3CCCC3)O2)c(=O)[nH]c1=O` [T8], under setting [1], the activation at 1 µM was in the range of 15 to 25%, the activation at 5 µM fell in the range of 27 to 37%, the activation at 10 µM is 35 to 45% and the activation at 50 µM was 32 to 39%. Besides, under setting [1], the activation at 100 µM lay within 40 to 47% and the activation at 200 µM was 3 to 9%.

For the molecule `Cc1cn([C@H]2C[C@H](OC(=O)C3CC3)[C@@H](COC(=O)C3CC3)O2)c(=O)[nH]c1=O` [T9], under setting [1], the activation at 1 µM is -10 to -3%, the activation at 10 µM fell in the range of 10 to 18%, the activation at 50 µM lay in the range of 24 to 31% and the activation at 200 µM was 27 to 34%. Besides, under setting [1], the activation at 500 µM is 30 to 38% and the activation at 1000 µM fell in the range of 35 to 40%. The activation at 1500 µM (Homo sapiens, HaCaT, increase vs Group of 5-FU, 5-FU 20 μM, compound 1500 μM, 48 h, read-out: Cell Survival Rate) lay in the range of 13 to 20%.

Regarding `Cc1cn([C@H]2C[C@H](OC(=O)Cc3ccccc3)[C@@H](COC(=O)Cc3ccccc3)O2)c(=O)[nH]c1=O` [T10], under setting [1], the activation at 1 µM was in the range of 5 to 10%, the activation at 5 µM was in the range of 35 to 45%, the activation at 10 µM was in the range of 60 to 70% and the activation at 50 µM lay within 65 to 75%. Further, the activation at 2 µM (Homo sapiens, HaCaT, increase vs Group of 5-FU, 5-FU 20 μM, compound 2 μM, 48 h, read-out: Cell Survival Rate) lay within 14 to 22%. For the same molecule, where the note is “Homo sapiens, HaCaT, increase vs Group of 5-FU, 5-FU 20 μM, compound 20 μM, 48 h, read-out: Cell Survival Rate”, the activation at 20 µM is 65 to 75%.

Consider `Cc1cn([C@H]2C[C@H](O)[C@@H](COC(=O)OC3CC3)O2)c(=O)[nH]c1=O` [T11], for which, under setting [1], the activation at 1 µM is -5 to 0%, the activation at 5 µM was 11 to 16%, the activation at 10 µM was 27 to 33% and the activation at 50 µM was in the range of 35 to 45%. Under setting [1], the activation at 100 µM was in the range of 38 to 45%, the activation at 200 µM lay in the range of 38 to 46%, the activation at 500 µM is 40 to 50% and the activation at 1000 µM lay in the range of 7 to 14%.

For the molecule `Cc1cn([C@H]2C[C@H](OC(=O)NC3CCCC3)[C@@H](COC(=O)NC3CCCC3)O2)c(=O)[nH]c1=O` [T12], under setting [1], the activation at 1 µM fell in the range of 0 to 5% and the activation at 10 µM is 9 to 16%.

For `Cc1cn([C@H]2C[C@H](OC(=O)C(C)C)[C@@H](COC(=O)C(C)C)O2)c(=O)[nH]c1=O` [T13], under setting [1], the activation at 1 µM was in the range of 15 to 25%, the activation at 10 µM is 40 to 50% and the activation at 100 µM lay in the range of 25 to 35%.

Turning to `Cc1cn([C@H]2C[C@H](OC(=O)Oc3ccccc3)[C@@H](COC(=O)Oc3ccccc3)O2)c(=O)[nH]c1=O` [T14], under setting [1], the activation at 1 µM lay in the range of 12 to 20%, the activation at 10 µM lay in the range of 30 to 40% and the activation at 100 µM fell in the range of 8 to 15%.

As to `Cc1cn([C@H]2C[C@H](OC(=O)NC3CC3)[C@@H](COC(=O)NC3CC3)O2)c(=O)[nH]c1=O` [T15], under setting [1], the activation at 1 µM lay within 13 to 20%, the activation at 10 µM fell in the range of 13 to 20%, the activation at 100 µM fell in the range of 20 to 30% and the activation at 500 µM is 25 to 35%. Further, under setting [1], the activation at 1000 µM was 9 to 16%.

Take `Cc1cn([C@H]2C[C@H](OC(=O)Nc3ccccc3)[C@@H](COC(=O)Nc3ccccc3)O2)c(=O)[nH]c1=O` [T16]: under setting [1], the activation at 1 µM lay in the range of 0 to 5% and the activation at 10 µM is 7 to 14%.

On to `CC(=O)NC[C@H]1O[C@@H](n2cc(C)c(=O)[nH]c2=O)C[C@@H]1OC(C)=O` [T17], for which, under setting [1], the activation at 1 µM lay within 15 to 25%, the activation at 10 µM fell in the range of 18 to 26%, the activation at 100 µM was in the range of 25 to 35% and the activation at 200 µM is 30 to 40%. Also, under setting [1], the activation at 500 µM was in the range of 35 to 45%.

`Cc1cn([C@H]2C[C@H](O)[C@@H](CO[Si](C)(C)C(C)(C)C)O2)c(=O)[nH]c1=O` [T18]: under setting [1], the activation at 1 µM lay within 6 to 12% and the activation at 10 µM fell in the range of 7 to 15%.

Regarding `Cc1cn([C@H]2C[C@H](O)[C@@H](COC(=O)OCc3ccccc3)O2)c(=O)[nH]c1=O` [T19], under setting [1], the activation at 1 µM lay in the range of 35 to 45%, the activation at 10 µM is 60 to 70%, the activation at 100 µM lay in the range of 58 to 67% and the activation at 500 µM was in the range of 35 to 45%.

In the case of `Cc1cn([C@H]2C[C@H](OC(=O)OCC(C)C)[C@@H](COC(=O)OCC(C)C)O2)c(=O)[nH]c1=O` [T20], under setting [1], the activation at 1 µM was in the range of 48 to 58%, the activation at 10 µM was 58 to 66% and the activation at 100 µM lay in the range of 55 to 65%.

With `Cc1cn([C@H]2C[C@H](OC(=O)OCC(C)(C)C)[C@@H](COC(=O)OCC(C)(C)C)O2)c(=O)[nH]c1=O` [T21], under setting [1], the activation at 1 µM lay within 5 to 13% and the activation at 10 µM fell in the range of 19 to 26%.

Take `Cc1cn([C@H]2C[C@H](OC(=O)OC(C)C)[C@@H](COC(=O)OC(C)C)O2)c(=O)[nH]c1=O` [T22]: under setting [1], the activation at 1 µM fell in the range of 2 to 7%, the activation at 10 µM was in the range of 10 to 17% and the activation at 100 µM lay within 9 to 16%.

On to `Cc1cn([C@H]2C[C@H](OC(=O)OC(C)(C)C)[C@@H](COC(=O)OC(C)(C)C)O2)c(=O)[nH]c1=O` [T23], for which, under setting [1], the activation at 1 µM lay in the range of 2 to 7%, the activation at 10 µM lay in the range of 5 to 11% and the activation at 100 µM was 20 to 26%.

For the molecule `Cc1cn([C@H]2C[C@H](OC(=O)C(C)(C)C)[C@@H](COC(=O)C(C)(C)C)O2)c(=O)[nH]c1=O` [T24], under setting [1], the activation at 1 µM lay within 27 to 35% and the activation at 10 µM lay within 21 to 27%.

As for `Cc1cn([C@H]2C[C@H](O)[C@@H](COC(=O)[C@H](C)c3ccc(-c4ccccc4)c(F)c3)O2)c(=O)[nH]c1=O` [T29], the “Cell Survival Rate (increased percentage of cell survival compared with the Group of 5-FU)” value is, setting by setting: under setting [2], 19%-25%; under setting [3], 19%-27%; under setting [4], 35%-42%; under setting [5], 43%-50%; under setting [6], 69%-76%; under setting [7], 54%-62%. Also, the “Cell Survival Rate (increased percentage of cell survival compared with the Group of 5-FU)” value under setting [8] is 48%-54%.

As for `Cc1cn([C@H]2C[C@H](O)[C@@H](COC(=O)C(C)c3ccc(CC(C)C)cc3)O2)c(=O)[nH]c1=O` (some centres unmarked) [T30], the “Cell Survival Rate (increased percentage of cell survival compared with the Group of 5-FU)” value reads like this: under setting [4], 39%-47%; under setting [5], 45%-53%; under setting [6], 54%-61%; under setting [7], 44%-51%; under setting [8], 39%-46%.

In the case of `Cc1cn([C@H]2C[C@H](O)[C@@H](COC(=O)[C@@H](C)c3ccc(CC(C)C)cc3)O2)c(=O)[nH]c1=O` [T31], the “Cell Survival Rate (increased percentage of cell survival compared with the Group of 5-FU)” value is recorded as 23%-30% under setting [2]; 29%-38% under setting [3]; 37%-43% under setting [4]; 41%-47% under setting [5]; 44%-51% under setting [6].

The values are drawn from US20230405003A1, “APPLICATION OF THYMIDINE DERIVATIVE IN PREPARATION OF DRUGS” (ONQUALITY PHARMACEUTICALS CHINA LTD., priority 2020, published 2023).
